From paper PMC9029323, “In Silico Identification of Novel Inhibitors Targeting the Homodimeric Interface of Superoxide Dismutase from the Dental Pathogen Streptococcus mutans” (Antioxidants, 2022)

Assays:
[1] = tested on: Streptococcus mutans ATCC-700610; assay: Broth micro-dilution antibacterial assay (planktonic growth); type: cell-based; conditions: 24 h
Protocol: (§1) The bacterial strain used for antimicrobial assays was Streptococcus mutans ATCC-700610. The strain was stored in 15% (v/v) glycerol stocks at −80 °C. Before each experiment, cells were subcultured from the stocks into Trypticase Soy Agar (TSA, cat. PA-254051.06) with 5% Sheep Blood (Becton Dickinson, Sparks, NV, USA) plates at 37 °C in 5% CO2 atmosphere for 48 h.
The antibacterial activity of compounds ALS-31 or ALS-31-9 was assayed in S. mutans cultures by a standard broth micro-dilution method in 96-well polystyrene plates using Brain-Heart Infusion broth (BHI, cat. 255003, Becton Dickinson, Sparks, NV, USA). One hundred microliters of bacterial suspension adjusted to approximately 1.5 × 10^6 CFU/mL were incubated with 100 µL of serial dilutions of the compounds dissolved in final 1.0% (v/v) DMSO as a vehicle. The plates were incubated at 37 °C in 5% CO2 atmosphere for 24 h under shaking (300 rpm). The medium turbidity was measured by a spectrophotometer at 595 nm (Bio-Rad Laboratories Inc., Hercules, CA, USA). Compound-free wells in 1.0% (v/v) DMSO were used as controls (100% planktonic growth), and antibacterial activity was expressed as a percentage of residual growth. Chlorhexidine acetate (CHX, cat. 51094, Sigma-Aldrich, St. Louis, MO, USA) solution (1 mg/mL) was prepared and included as control for the assay of S. mutans’ susceptibility (MIC referred to [51]). Each compound was tested in triplicate; each experiment was performed twice.

[2] = tested on: Streptococcus mutans ATCC-700610; assay: Crystal violet staining biofilm biomass assay; type: cell-based; conditions: 24 h
Protocol: as §1
The crystal violet (CV) staining method was used to measure biofilm biomass formed in flat-bottomed 96-well microplates in the presence of ALS-31 or ALS-31-9, as described by Stepanović et al., with some modifications. A bacterial suspension of approximately 1.5 × 10^6 CFU/mL in BHI supplemented with 1% (w/v) glucose was prepared, and 100-µL aliquots of this suspension were incubated with 100 µL of serial dilutions of each compound. The microplate was incubated at 37 °C for 24 h, after which the non-adherent cells were gently aspirated and the wells gently rinsed with PBS (Sigma–Aldrich). The adhered biofilm was dried at 60 °C for 30 min and subsequently stained with 0.1% (w/v) crystal violet solution for 30 min. After washing with PBS and solubilization with absolute ethanol to release the dye from the biofilm, the plate was read at 570 nm in a spectrophotometer. The absorbance recorded was related to the amount of biofilm produced. The reduction in the mass of the biofilm was expressed as a percentage by using the formula [(Ac-At)/Ac] × 100, where Ac is the OD570 for the control wells and At is the OD570 in the presence of the tested compound.

Compound: CSCCC(NC(=O)COc1ccc2c3c(c(=O)oc2c1)CCCC3)C(=O)NCCC(=O)O (centres unmarked) [ALS-31]
- percentage of planktonic growth of S. mutans ([1]; 104 µM): 74.3 ± 4.5%
- percentage of planktonic growth of S. mutans ([1]; 209 µM): 50.7 ± 4.2%
- concentration up to which no antimicrobial activity is displayed in S. mutans suspensions [1]: ≤ 50 µM
- inhibition at 52.5 µM ([2]; Streptococcus mutans, ATCC700610, 52.5 µM, read-out: inhibition of biofilm biomass formation): 68.2%
- effect on biofilm formation ([2]; serial dilutions from 52.5 µM): no effects
